Source: patent publication US9510598B2, “Nitrogen-containing heterocyclic compounds for plant disease control” (BAYER CROPSCIENCE AG, priority 2012, dated 2016)
Several values for one entry are separate records, joined by “and”; a condition that tells them apart may be missing. Equal entries are not always repeated. Where two headings read alike, the source gives them in different places.

Key:
[1] = test system: Septoria tritici; experiment: In vivo preventive test on Septoria tritici (leaf spot on wheat); settings: 500 ppm; wheat plants sprayed 24 hours before contamination; grading 21 to 28 days after contamination vs control plants
How it was run: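 Scipion wheat at 1-leaf stage sprayed with compound, controls receiving acetone/tween/DMSO/water vehicle; 24 h later leaves inoculated with Septoria tritici spores (500 000 spores per ml). Efficacy (%) graded versus control plants 21 to 28 days after contamination.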

[2] = test system: Phytophthora infestans; type: in vivo; settings: 500 ppm; tomato plants sprayed 24 hours before contamination; grading 5 days after contamination vs control plants
[3] = type: physicochemical
[4] = test system: Sphaerotheca fuliginea; experiment: In vivo preventive test on Sphaerotheca fuliginea (powdery mildew on cucurbits); settings: 500 ppm; gherkin plants sprayed 24 hours before contamination; grading 12 days after contamination vs control plants
How it was run: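 Preventive spray of gherkin plants at Z11 cotyledon stage, grown at 24° C; inoculation 24 hours later with Sphaerotheca fuliginea spores (100 000 spores per ml). Efficacy graded 12 days post-inoculation as % versus solvent-treated control plants.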

[5] = test system: Botrytis cinerea; experiment: In vivo preventive test on Botrytis cinerea (grey mould); settings: 500 ppm; gherkin plants sprayed 24 hours before contamination; grading 4-5 days after contamination vs control plants
How it was run: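 Gherkin plants ("Vert petit de Paris") sprayed with compound at Z11 cotyledon stage, then inoculated 24 h later with B. cinerea spores (50 000/ml) in PDB/fructose/NH4NO3/KH2PO4 nutrient solution. Incubated at 17 °C, 80% RH; % efficacy versus solvent-treated controls graded 4–5 days after contamination.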

[6] = method [a]: HPLC/LC-MS on reversed phase at pH 2.7, 0.1% formic acid in water / acetonitrile, gradient 10% to 95% acetonitrile
[7] = method [a]: HPLC/LC-MS on reversed phase at pH 2.7, 0.1% formic acid in water / acetonitrile, linear gradient 10% to 95% acetonitrile
[8] = HPLC on reversed phase columns, method [a]: pH 2.7, 0.1% formic acid in water and acetonitrile, linear gradient 10% to 95% acetonitrile
[9] = HPLC on reversed phase columns, method [a]: pH 2.7, 0.1% formic acid in water / acetonitrile, linear gradient 10% to 95% acetonitrile

Row | Structure (SMILES) | % of efficacy (protection) [1] [%] | % of efficacy (protection) [2] [%] | log P [3, 6] | % of efficacy (protection) [4] | % of efficacy (protection) [5] [%] | log P [3, 7] | log P [3, 8] | log P [3, 9]
1 | C#Cc1cnc2ccc(C3=NOC(C)(C(=O)NC4CCOCC4C)C3)cc2c1 (stereo not shown) [compound 470] | 97 | 98 | 2.21[a] | 75% | 100 | – | – | –
2 | CCn1cc(CNC(=O)C2(OC)CC(c3ccc4ncc(I)cc4c3)=NO2)c(C)n1 (racemic) [compound 437] | – | 70 | 2.44[a] | 100% | – | – | – | –
3 | C#Cc1cnc2ccc(C3=NOC(C)(C(=O)NC(C)C)C3)cc2c1 (stereo not shown) [compound 40] | 100 | 97 | – | 100% | 100 | 2.28^[a] | – | –
4 | C=CC1(C(=O)NCCCOCC)CC(c2ccc3ncc(I)cc3c2)=NO1 (stereo not shown) [compound 730] | 100 | 100 | – | 98% | 85 | – | 3.19[a] | –
5 | CC(NC(=O)C1(C)CC(c2ccc3ncc(Br)cc3c2)=NO1)C1CCOC1 (stereo not shown) [compound 291] | 100 | 87 | – | 80% | 88 | – | – | 2.46[a]
6 | C#Cc1cnc2ccc(C3=NOC(C)(C(=O)NC(C)c4cn(CC)nc4C)C3)cc2c1 (stereo not shown) [compound 351] | 100 | 100 | – | 98% | – | – | – | 2.28[a]
7 | CCn1cc(CNC(=O)C2(CC)CC(c3ccc4ncc(Br)cc4c3)=NO2)c(C)n1 (stereo not shown) [compound 70] | 100 | 82 | – | 100% | 93 | 2.66^[a] | – | –
8 | C#Cc1cnc2ccc(C3=NOC(C)(C(=O)NCc4cn(CCC)nc4C)C3)cc2c1 (stereo not shown) [compound 83] | 92 | 97 | – | 97% and 98% | 100 | 2.39^[a] | – | –
9 | C#Cc1cnc2ccc(C3=NOC(C)(C(=O)NCc4c(C)nn(CC)c4C)C3)cc2c1 (stereo not shown) [compound 87] | – | 100 | – | 89% | 97 | 2.08^[a] | – | –
10 | C#Cc1cnc2c(C)cc(C3=NOC(C)(C(=O)NCc4cn(CCC)nc4C)C3)cc2c1 (stereo not shown) [compound 533] | 100 | 90 | – | 100% | 100 | – | – | 2.90[a]
11 | CCn1cc(CNC(=O)C2(SC)CC(c3ccc4ncc(Br)cc4c3)=NO2)c(C)n1 (stereo not shown) [compound 565] | 100 | 99 | – | 98% | 100 | – | – | 2.51[a]
12 | C#Cc1cnc2ccc(C3=NOC(C)(C(=O)NCc4cn(C(C)C)nc4C)C3)cc2c1 (stereo not shown) [compound 461] | – | 100 | 2.34[a] | 98% | 99 | – | – | –
13 | C#Cc1cnc2ccc(C3=NOC(OC)(C(=O)NC(C)(C)c4cc(C)ccn4)C3)cc2c1 (stereo not shown) [compound 511] | 100 | 100 | 1.95[a] | 88% | 100 | – | – | –
14 | C#Cc1cnc2ccc(C3=NOC(C)(C(=O)NC(C)C4=NOCC4)C3)cc2c1 (stereo not shown) [compound 338] | 100 | 92 | – | 100% | – | – | – | 2.08[a]
15 | C#Cc1cnc2c(Cl)cc(C3=NOC(C)(C(=O)NCc4cn(CCC)nc4C)C3)cc2c1 (stereo not shown) [compound 551] | 93 | 81 | – | – | 98 | – | – | 2.78[a]
16 | C#Cc1cnc2c(Cl)cc(C3=NOC(C)(C(=O)NCc4cn(CC)nc4C)C3)cc2c1 (stereo not shown) [compound 550] | 100 | 83 | – | 80% | 98 | – | – | 2.53[a]
17 | CCn1ncc(CNC(=O)C2(C)CC(c3ccc4ncc(Br)cc4c3)=NO2)c1C (stereo not shown) [compound 100] | 75 | 98 | – | 94% | 97 | 2.37^[a] | – | –

Row | Structure (SMILES) | % of efficacy (protection) [1] [%] | % of efficacy (protection) [2] [%] | log P [3, 6] | % of efficacy (protection) [4] | % of efficacy (protection) [5] [%] | log P [3, 7] | log P [3, 8] | log P [3, 9]
18 | C#Cc1cnc2ccc(C3=NOC(C)(C(=O)NCc4cnn(C(C)C)c4)C3)cc2c1 (stereo not shown) [compound 197] | 86 | 97 | – | 98% | 100 | 2.23^[a] | – | –
19 | C#Cc1cnc2ccc(C3=NOC(C)(C(=O)NC(C)(C)/C=N/OC)C3)cc2c1 (stereo not shown) [compound 463] | 100 | 100 | 2.92[a] | 97% | 100 | – | – | –
20 | C#Cc1cnc2ccc(C3=NOC(C)(C(=O)NCc4cnn(CC)c4)C3)cc2c1 (stereo not shown) [compound 181] | – | 92 | – | 98% | 92 | 2.04^[a] | – | –
21 | C#Cc1cnc2ccc(C3=NOC(C)(C(=O)NC(C)(C)C#CCOC)C3)cc2c1 (stereo not shown) [compound 465] | 97 | 100 | 2.82[a] | 81% | 88 | – | – | –
22 | C=CC1(C(=O)NCc2cn(CC)nc2C)CC(c2ccc3ncc(I)cc3c2)=NO1 (stereo not shown) [compound 728] | – | 100 | – | 100% | 97 | – | 2.75[a] | –
23 | C#Cc1cnc2ccc(C3=NOC(OC)(C(=O)NCc4c(C)cnn4CCC)C3)cc2c1 (stereo not shown) [compound 409] | 100 | 100 | 2.33[a] | 98% | 100 | – | – | –
24 | CCCn1cc(CNC(=O)C2(C)CC(c3ccc4ncc(I)cc4c3)=NO2)c(C)n1 (stereo not shown) [compound 455] | – | 100 | 2.75[a] | 98% | 98 | – | – | –
25 | C#Cc1cnc2ccc(C3=NOC(C)(C(=O)NC(C)COC)C3)cc2c1 (racemic) [compound 365] | 100 | 79 | 2.26[a] | 98% | – | – | – | –
26 | CCCn1cc(CNC(=O)C2(C)CC(c3cc(Cl)c4ncc(Br)cc4c3)=NO2)c(C)n1 (racemic) [compound 549] | 97 | 96 | – | – | 83 | – | – | 3.06[a]
27 | CCn1cc(C(C)NC(=O)C2(C)CC(c3ccc4ncc(Br)cc4c3)=NO2)c(C)n1 (stereo not shown) [compound 312] | 100 | 100 | – | 94% | – | – | – | 2.52[a]
28 | C=CC1(C(=O)NCCCOCC)CC(c2ccc3ncc(Br)cc3c2)=NO1 (stereo not shown) [compound 733] | 92 | 100 | – | 98% | – | – | 3.06[a] | –
29 | CON=CC(C)(C)NC(=O)C1(C)CC(c2ccc3ncc(Br)cc3c2)=NO1 (stereo not shown) [compound 298] | 100 | 100 | – | – | 87 | – | – | 3.29[a]
30 | CCn1cc(CNC(=O)C2(C)CC(c3ccc4ncc(Br)cc4c3)=NO2)cn1 (stereo not shown) [compound 182] | – | 83 | – | 98% | 99 | 2.27^[a] | – | –
31 | C#Cc1cnc2ccc(C3=NOC(C)(C(=O)NCc4c(C)nn(C)c4C)C3)cc2c1 (stereo not shown) [compound 183] | 86 | 86 | – | – | – | 1.91^[a] | – | –
32 | C#Cc1cnc2ccc(C3=NOC(C)(C(=O)NC(C)(C)c4nc(C)cs4)C3)cc2c1 (stereo not shown) [compound 516] | – | 73 | – | – | 100 | – | – | 2.92[a]
33 | CC(C)n1cc(CNC(=O)C2(C)CC(c3ccc4ncc(Br)cc4c3)=NO2)cn1 (stereo not shown) [compound 199] | – | 92 | – | 98% | 99 | 2.5^[a] | – | –
34 | CC#Cc1cnc2ccc(C3=NOC(C)(C(=O)NC(C)C)C3)cc2c1 (racemic) [compound 381] | 97 | 95 | 2.73[a] | 94% | – | – | – | –
